US20150196033A1, “PESTICIDAL COMPOSITIONS AND PROCESSES RELATED THERETO” (priority 2012, published 2015)

Legend:
Format in all cases: in vivo
[1] = system: Corn Earworm (CEW) (Helicoverpa zea); assay: Bioassay on Corn Earworm (CEW), 128-well diet tray assay; conditions: second instar larvae, five to seven days; for mortality at 50 µg/cm2 / mortality at 0.5 µg/cm2: Helicoverpa zea, 168 h; for mortality at 50 µg/cm2: read-out: Rating CEW (% Control (or Mortality)); for mortality at 0.5 µg/cm2: 0.5 μg/cm2 on artificial diet, read-out: Rating CEW (% Control (or Mortality)), *Tested at 0.5 μg/cm2
Method in brief: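 Helicoverpa zea larvae in 128-well diet trays, held at 25 °C, 14:10 light-dark for five to seven days. Percent mortality scored per well and averaged over eight wells.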

[2] = system: Yellow Fever Mosquito (YFM) (Aedes aegypti); conditions: about 1 day-old larvae, scored on mortality after 3 days
Method: Certain molecules disclosed in this document were tested against YFM using procedures described in the following paragraph. In the reporting of the results, the “YFM Rating Table” was used (See Table Section).
Master plates containing 400 μg of a molecule dissolved in 100 μL of dimethyl sulfoxide (DMSO) (equivalent to a 4000 ppm solution) are used. A master plate of assembled molecules contains 15 μL per well. To this plate, 135 μL of a 90:10 water:acetone mixture is added to each well. A robot (Biomek® NXP Laboratory Automation Workstation) is programmed to dispense 15 μL aspirations from the master plate into an empty 96-well shallow plate (“daughter” plate). There are 6 reps (“daughter” plates) created per master. The created daughter plates are then immediately infested with YFM larvae.
The day before plates are to be treated, mosquito eggs are placed in Millipore water containing liver powder to begin hatching (4 g. into 400 ml). After the daughter plates are created using the robot, they are infested with 220 μL of the liver powder/larval mosquito mixture (about 1 day-old larvae). After plates are infested with mosquito larvae, a non-evaporative lid is used to cover the plate to reduce drying. Plates are held at room temperature for 3 days prior to grading. After 3 days, each well is observed and scored based on mortality.

[3] = system: Beet Armyworm (BAW) (Spodoptera exigua); assay: Bioassay on Beet Armyworm (BAW), 128-well diet tray assay; conditions: 50 μg/cm2 on artificial diet, second instar larvae, five to seven days; for mortality at 50 µg/cm2: Spodoptera exigua, 168 h, read-out: Rating BAW (% Control (or Mortality))
Method in brief: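 Spodoptera exigua larvae on diet trays held 5–7 days at 25 °C, 14:10 light-dark. Percent mortality scored per well and averaged over eight wells.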

[4] = system: Green Peach Aphid (GPA) (Myzus persicae); assay: Bioassay on Green Peach Aphid (GPA), foliar spray on cabbage seedlings; conditions: 200 ppm foliar spray on cabbage seedlings, graded after three days, Abbott corrected % control; for mortality at 200 ppm: Myzus persicae, 72 h, read-out: Rating GPA (% Control (or Mortality))
Method: Certain molecules disclosed in this document were tested against GPA using procedures described in the following example. In the reporting of the results, the “GPA Rating Table” was used (See Table Section).
Cabbage seedlings grown in 3-inch pots, with 2-3 small (3-5 cm) true leaves, were used as test substrate. The seedlings were infested with 20-50 GPA (wingless adult and nymph stages) one day prior to chemical application. Four pots with individual seedlings were used for each treatment. Test compounds (2 mg) were dissolved in 2 mL of acetone/MeOH (1:1) solvent, forming stock solutions of 1000 ppm test compound. The stock solutions were diluted 5× with 0.025% Tween 20 in H2O to obtain the solution at 200 ppm test compound. A hand-held aspirator-type sprayer was used for spraying a solution to both sides of […] leaves until runoff. Reference plants (solvent check) were sprayed with the diluent only containing 20% by volume of acetone/MeOH (1:1) solvent. Treated plants were held in a holding room for three days at approximately 25° C. and ambient relative humidity (RH) prior to grading. Evaluation was conducted by counting the number of live aphids per plant under a microscope. Percent Control was measured by using Abbott's correction formula (W.S. Abbott, “A Method of Computing the Effectiveness of an Insecticide” J. Econ. Entomol. 18 (1925), pp. 265-267) as follows.
Corrected % Control=100*(X−Y)/X • where • X=No. of live aphids on solvent check plants and • Y=No. of live aphids on treated plants

Cc1cccc(C)c1N/C(=N/C(=O)Nc1ccc(-c2ncn(-c3ccc(C(F)(F)F)cc3)n2)cc1)SCOC(=O)C(C)C [Molecule A3, (E)-(N′-(2,6-Dimethylphenyl)-N-(4-(1-(4-(trifluoromethyl)phenyl)-1H-1,2,4-triazol-3-yl)phenylcarbamoyl)carbamimidoylthio) methyl isobutyrate]
mortality at 50 µg/cm2 ([1]; 50 μg/cm2 on artificial diet): 50 to 100% | Rating YFM (% Control (or Mortality)) [2]: A (80-100) | mortality at 50 µg/cm2 [3]: 50 to 100% | mortality at 200 ppm [4]: 0%

Cc1cccc(C)c1N/C(=N/C(=O)Nc1ccc(-c2ncn(-c3ccc(OC(F)(F)F)cc3)n2)cc1)SCOC(=O)C(C)C [Molecule A4, (E)-(N′-(2,6-Dimethylphenyl)-N-(4-(1-(4-(trifluoromethyoxy)phenyl)-1H-1,2,4-triazol-3-yl)phenylcarbamoyl)carbamimidoylthio)methyl isobutyrate]
mortality at 50 µg/cm2 ([1]; 50 μg/cm2 on artificial diet): 50 to 100% | Rating YFM (% Control (or Mortality)) [2]: A (80-100) | mortality at 50 µg/cm2 [3]: 50 to 100% | mortality at 200 ppm [4]: 0 to 80%

Cc1cccc(C)c1N/C(S)=N/C(=O)Nc1ccc(-c2ncn(-c3ccc(C(F)(F)F)cc3)n2)cc1 [Molecule A12]
mortality at 50 µg/cm2 ([1]; 50 μg/cm2 on artificial diet): 50 to 100% | mortality at 50 µg/cm2 [3]: 50 to 100% | mortality at 200 ppm [4]: 0%

Cc1cccc(C)c1N1C(=O)CS/C1=N\C(=O)Nc1ccc(-c2ncn(-c3ccc(OC(F)(F)F)cc3)n2)cc1 [Molecule A14, (Z)-1-(3-(2,6-dimethylphenyl)-4-oxothiazolidin-2-ylidene)-3-(4-(1-(4-(trifluoromethoxy)phenyl)-1H-1,2,4-triazol-3-yl)phenyl)urea]
mortality at 50 µg/cm2 ([1]; 50 μg/cm2 on artificial diet): 50 to 100% | Rating YFM (% Control (or Mortality)) [2]: A (80-100) | mortality at 50 µg/cm2 [3]: 50 to 100% | mortality at 200 ppm [4]: 0 to 80%

CCC(C)c1ccccc1N1C(=O)CS/C1=N\C(=O)Nc1ccc(-c2ncn(-c3ccc(OC(F)(F)F)cc3)n2)cc1 (centres unmarked) [Molecule A18, (Z)-1-(3-(2-(sec-butyl)phenyl)-4-oxothiazolidin-2-ylidene)-3-(4-(1-(4-(trifluoromethoxy)phenyl)-1H-1,2,4-triazol-3-yl)phenyl)urea]
mortality at 50 µg/cm2 ([1]; 50 μg/cm2 on artificial diet): 50 to 100% | Rating YFM (% Control (or Mortality)) [2]: A (80-100) | mortality at 50 µg/cm2 [3]: 50 to 100%

CC(=O)/C(C(=O)Nc1ccc(-c2ncn(-c3ccc(OC(F)(F)F)cc3)n2)cc1)=C(/S)Nc1ccccc1C(C)C [Molecule A20, (E)-3-hydroxy-2-((2-isopropylphenyl)carbamothioyl)-N-(4-(1-(4-(trifluoromethoxy)phenyl)-1H-1,2,4-triazol-3-yl)phenyl)but-2-enamide]
mortality at 50 µg/cm2 ([1]; 50 μg/cm2 on artificial diet): 50 to 100% | mortality at 50 µg/cm2 [3]: 50 to 100% | mortality at 200 ppm [4]: 0%

Cc1ccccc1N/C(S)=C/C(=O)Nc1ccc(-c2ncn(-c3ccc(OC(F)(F)F)cc3)n2)cc1 [Molecule A22, 3-thioxo-3-(o-tolylamino)-N-(4-(1-(4-(trifluoromethoxy)phenyl)-1H-1,2,4-triazol-3-yl)phenyl)propanamide]
mortality at 50 µg/cm2 ([1]; 50 μg/cm2 on artificial diet): 50 to 100% | mortality at 50 µg/cm2 [3]: 50 to 100% | mortality at 200 ppm [4]: 0%

Cc1cccc(C)c1N/C(S)=C(\C#N)C(=O)Nc1ccc(-c2ncn(-c3ccc(OC(F)(F)F)cc3)n2)cc1 [Molecule A28, (Z)-2-Cyano-3-mercapto-3-((2,6-dimethylphenyl)amino)-N-(4-(1-(4-(trifluoromethoxy)phenyl)-1H-1,2,4-triazol-3-yl)phenyl)acrylamide]
mortality at 50 µg/cm2 ([1]; 50 μg/cm2 on artificial diet): 50 to 100% | Rating YFM (% Control (or Mortality)) [2]: D (No activity noticed in this bioassay) | mortality at 50 µg/cm2 [3]: 0%

Cc1cccc(C)c1N/C(O)=C/C(=O)Nc1ccc(-c2ncn(-c3ccc(OC(F)(F)F)cc3)n2)cc1 [Molecule A32, (Z)-3-(2,6-dimethylphenylamino)-3-hydroxy-I-(4-(1-(4-(trifluoromethoxy)phenyl)-1H-1,2,4-triazol-3-yl)phenyl)acrylamide]
mortality at 50 µg/cm2 ([1]; 50 μg/cm2 on artificial diet): 50 to 100% | mortality at 50 µg/cm2 [3]: 50 to 100% | mortality at 200 ppm [4]: 0%

COc1ccc(N/C(O)=C/C(=O)Nc2ccc(-c3ncn(-c4ccc(OC(F)(F)F)cc4)n3)cc2)c(C)c1 [Molecule A33, (Z)-3-hydroxy-3-(4-methoxy-2-methylphenylamino)-N-(4-(1-(4-(trifluoromethoxy)phenyl)-1H-1,2,4-triazol-3-yl)phenyl)acrylamide]
mortality at 50 µg/cm2 ([1]; 50 μg/cm2 on artificial diet): 50 to 100% | mortality at 50 µg/cm2 [3]: 50 to 100% | mortality at 200 ppm [4]: 0 to 80%

COc1ccc(N/C(O)=C/C(=O)Nc2ccc(-c3ncn(-c4ccc(OC(F)(F)F)cc4)n3)cc2)c(C(C)C)c1 [Molecule A34, (Z)-3-hydroxy-3-(2-isopropyl-4-methoxyphenylamino)-N-(4-(1-(4-(trifluoromethoxy)phenyl)-1H-1,2,4-triazol-3-yl)phenyl)acrylamide]
mortality at 50 µg/cm2 ([1]; 50 μg/cm2 on artificial diet): 50 to 100% | Rating YFM (% Control (or Mortality)) [2]: A (80-100) | mortality at 50 µg/cm2 [3]: 50 to 100% | mortality at 200 ppm [4]: 0%

CCc1ccccc1N1C(=O)CS/C1=N\C(=O)Nc1ccc(-c2ncn(-c3ccc(OC(F)(F)F)cc3)n2)cc1 [Molecule A35]
mortality at 50 µg/cm2 ([1]; 50 μg/cm2 on artificial diet): 50 to 100% | Rating YFM (% Control (or Mortality)) [2]: A (80-100) | mortality at 50 µg/cm2 [3]: 50 to 100% | mortality at 200 ppm [4]: 0%

Cc1ccccc1N1C(=O)CS/C1=N\C(=O)Nc1ccc(-c2ncn(-c3ccc(OC(F)(F)F)cc3)n2)cc1 [Molecule A65]
mortality at 0.5 µg/cm2 [1]: 50 to 100% | Rating YFM (% Control (or Mortality)) [2]: A (80-100) | mortality at 50 µg/cm2 [3]: 50 to 100%

CCCc1ccccc1N1C(=O)CS/C1=N\C(=O)Nc1ccc(-c2ncn(-c3ccc(OC(F)(F)F)cc3)n2)cc1 [Molecule A69]
mortality at 0.5 µg/cm2 [1]: 50 to 100% | Rating YFM (% Control (or Mortality)) [2]: A (80-100) | mortality at 50 µg/cm2 [3]: 50 to 100%

Cc1ccc(N2C(=O)CS/C2=N\C(=O)Nc2ccc(-c3ncn(-c4ccc(OC(F)(F)F)cc4)n3)cc2)c(Cl)c1 [Molecule A77]
mortality at 0.5 µg/cm2 [1]: 50 to 100% | Rating YFM (% Control (or Mortality)) [2]: B (More than 0-Less than 80) | mortality at 50 µg/cm2 [3]: 50 to 100%

Cc1ccccc1N/C(S)=N/C(=O)Nc1ccc(-c2ncn(-c3ccc(OC(F)(F)F)cc3)n2)cc1 [Molecule A80]
mortality at 50 µg/cm2 ([1]; 50 μg/cm2 on artificial diet): 50 to 100% | Rating YFM (% Control (or Mortality)) [2]: B (More than 0-Less than 80) | mortality at 50 µg/cm2 [3]: 50 to 100%

CC(C)c1cccc(Cl)c1N1C(=O)CS/C1=N\C(=O)Nc1ccc(-c2ncn(-c3ccc(OC(F)(F)F)cc3)n2)cc1 [Molecule A85]
mortality at 0.5 µg/cm2 [1]: 50 to 100% | Rating YFM (% Control (or Mortality)) [2]: A (80-100) | mortality at 50 µg/cm2 [3]: 50 to 100%

Cc1cc(-c2ncn(-c3ccc(OC(F)(F)F)cc3)n2)ccc1NC(=O)/N=C(\S)Nc1ccccc1C(C)C [Molecule A122]
mortality at 0.5 µg/cm2 [1]: 50 to 100% | Rating YFM (% Control (or Mortality)) [2]: A (80-100) | mortality at 50 µg/cm2 [3]: 50 to 100%

Cc1cc(-c2ncn(-c3ccc(OC(F)(F)F)cc3)n2)ccc1NC(=O)/N=C1\SCC(=O)N1c1ccccc1C(C)C [Molecule A123, (Z)-1-(3-(2-isopropylphenyl)-4-oxothiazolidin-2-ylidene)-3-(2-methyl-4-(1-(4-(trifluoromethoxy)phenyl)-1H-1,2,4-triazol-3-yl)phenyl)urea]
mortality at 0.5 µg/cm2 [1]: 50 to 100% | Rating YFM (% Control (or Mortality)) [2]: A (80-100) | mortality at 50 µg/cm2 [3]: 50 to 100%

(E)-((N′-(4-Methoxy-2,6-dimethylphenyl)-N-((4-(1-(4-(trifluoromethyl)phenyl)-1H-1,2,4-triazol-3-yl)phenyl)carbamoyl) carbamimidoyl)thio)methyl 2-(((benzyloxy)carbonyl)amino)acetate [Molecule A9]
Rating CEW (% Control (or Mortality)) ([1]; 50 μg/cm2 on artificial diet): A (50-100) | Rating BAW (% Control (or Mortality)) [3]: A (50-100) | Rating GPA (% Control (or Mortality)) [4]: B (More than 0-Less than 80)
